Key:
[1] = tested on: TNF-α; assay: TNF-α production in LPS-stimulated human whole blood (ELISA); format: cell-based; conditions: LPS 4 hours, read-out: % TNF-α Inhibitory Activity in (hPBMC)
Protocol: This assay determines the effect of the test compounds on the production of TNF-α in human whole blood. TNF-α assay is carried out as described by Armin Hatzelmann and Christian Schudt (J Pharm Exp Ther 297, 261, 2001). Compounds are tested for their ability to inhibit the activity of TNF-α in human whole blood. The test compounds are pre-incubated for 15 minutes at 37° C. and then stimulated with Lipopolysaccharide (Salmonella abortus equi, 1 µg/ml) for 4 hours at 37° C. in 5% CO2. The levels of TNF-α are estimated using Enzyme linked Immunosorbent assay performed in a 96 well format as per the procedure of the manufacturer (Cayman Chemical, Ann Arbor, USA).

Structure (SMILES): Cc1nccn1CC1CCc2c(c3ccccc3n2C)/C1=N/OC(=O)c1ccc(C(F)(F)F)cc1 (stereo not drawn) [Example 34]
- melting point: 200 to 203 °C

Structure (SMILES): COc1ccc(C(=O)O/N=C2/c3c(n(C)c4ccccc34)CCC2Cn2ccnc2C)cc1 (stereo not drawn) [Example 35, (4E)-9-methyl-3-[(2-methyl-1H-imidazol-1-yl)methyl]-1,2,3,9-tetrahydro-4H-carbazol-4-one O-4-methoxybenzoyloxime]
- melting point: 200 to 203 °C

Structure (SMILES): Cc1nccn1CC1CCc2c(c3ccccc3n2C)/C1=N/OCc1ccc([N+](=O)[O-])cc1 (stereo not drawn) [Example 15, (4E)-9-methyl-3-[(2-methyl-1H-imidazol-1-yl)methyl]-1,2,3,9-tetrahydro-4H-carbazol-4-one O-(4-nitrobenzyl)oxime]
- inhibition at 1 µM [1]: 48.1%
- inhibition at 10 µM [1]: 41.2%

Structure (SMILES): Cc1nccn1CC1CCc2c(c3ccccc3n2C)/C1=N/OC(=O)c1ccccc1 (stereo not drawn) [Example 30, (4E)-9-methyl-3-[(2-methyl-1H-imidazol-1-yl)methyl]-1,2,3,9-tetrahydro-4H-carbazol-4-one O-benzoyloxime]
- melting point: 179 to 185 °C

Structure (SMILES): Cc1nccn1CC1CCc2c(c3ccccc3n2C)/C1=N/OC(=O)c1ccoc1 (stereo not drawn) [Example 63, (4E)-9-methyl-3-[(2-methyl-1H-imidazol-1-yl)methyl]-1,2,3,9-tetrahydro-4H-carbazol-4-one [(furan-3-yl)carbonyl]oxime]
- melting point: 158 to 164 °C

Structure (SMILES): Cc1nccn1CC1CCc2c(c3ccccc3n2C)/C1=N/OC(=O)c1ccc(Cl)s1 (stereo not drawn) [Example 56, (4E)-9-methyl-3-[(2-methyl-1H-imidazol-1-yl)methyl]-1,2,3,9-tetrahydro-4H-carbazol-4-one O-5-chloro-2-thiophenoyloxime]
- melting point: 140 to 144 °C
- inhibition at 1 µM [1]: 26.5%
- inhibition at 10 µM [1]: 54.3%

Structure (SMILES): Cc1cc(C(=O)O/N=C2/c3c(n(C)c4ccccc34)CCC2Cn2ccnc2C)no1 (stereo not drawn) [Example 50, (4E)-9-methyl-3-[(2-methyl-1H-imidazol-1-yl)methyl]-1,2,3,9-tetrahydro-4H-carbazol-4-one O-5-methyl-3-isoxazoloyloxime]
- melting point: 154 to 157 °C

Structure (SMILES): Cc1ccc(C(=O)O/N=C2/c3c(n(C)c4ccccc34)CCC2Cn2ccnc2C)cc1 (stereo not drawn) [Example 36, (4E)-9-methyl-3-[(2-methyl-1H-imidazol-1-yl)methyl]-1,2,3,9-tetrahydro-4H-carbazol-4-one O-4-methylbenzoyloxime]
- melting point: 207 to 212 °C
- inhibition at 1 µM [1]: 8.81%
- inhibition at 10 µM [1]: 18.8%

Structure (SMILES): Cc1ccoc1C(=O)O/N=C1/c2c(n(C)c3ccccc23)CCC1Cn1ccnc1C (stereo not drawn) [Example 48, (4E)-9-methyl-3-[(2-methyl-1H-imidazol-1-yl)methyl]-1,2,3,9-tetrahydro-4H-carbazol-4-one O-3-methyl-2-furanoyloxime]
- melting point: 165 to 170 °C
- inhibition at 1 µM [1]: 20.7%
- inhibition at 10 µM [1]: 22.6%

Structure (SMILES): COc1ccc(CO/N=C2/c3c(n(C)c4ccccc34)CCC2Cn2ccnc2C)cc1 (stereo not drawn) [Example 5, (4E)-9-methyl-3-[(2-methyl-1H-imidazol-1-yl)methyl]-1,2,3,9-tetrahydro-4H-carbazol-4-one O-(4-methoxybenzyl)oxime]
- inhibition at 1 µM [1]: 18.4%
- inhibition at 10 µM [1]: 52.4%

Structure (SMILES): Cc1nccn1CC1CCc2c(c3ccccc3n2C)/C1=N/OC(=O)c1ccccc1F (stereo not drawn) [Example 33, (4E)-9-methyl-3-[(2-methyl-1H-imidazol-1-yl)methyl]-1,2,3,9-tetrahydro-4H-carbazol-4-one O-2-fluorobenzoyloxime]
- melting point: 172 to 175 °C

Structure (SMILES): Cc1nccn1CC1CCc2c(c3ccccc3n2C)/C1=N/O (stereo not drawn) [Example 1, (4E)-9-methyl-3-[(2-methyl-1H-imidazol-1-yl)methyl]-1,2,3,9-tetrahydro-4H-carbazol-4-one oxime]
- melting point: 231 to 233 °C

Structure (SMILES): Cc1nccn1CC1CCc2c(c3ccccc3n2C)/C1=N/OC(=O)c1ccc(Cl)cc1 (stereo not drawn) [Example 31, (4E)-9-methyl-3-[(2-methyl-1H-imidazol-1-yl)methyl]-1,2,3,9-tetrahydro-4H-carbazol-4-one O-4-chloro-benzoyloxime]
- melting point: 206 to 212 °C
- inhibition at 1 µM [1]: 10.8%
- inhibition at 10 µM [1]: 28.5%

Structure (SMILES): Cc1ccsc1C(=O)O/N=C1/c2c(n(C)c3ccccc23)CCC1Cn1ccnc1C (stereo not drawn) [Example 49, (4E)-9-methyl-3-[(2-methyl-1H-imidazol-1-yl)methyl]-1,2,3,9-tetrahydro-4H-carbazol-4-one O-3-methyl-2-thiophenoyloxime]
- melting point: 177 to 180 °C

Structure (SMILES): Cc1nccn1CC1CCc2c(c3ccccc3n2C)/C1=N/OC(=O)c1ccsc1 (stereo not drawn) [Example 53]
- melting point: 171 to 175 °C

Structure (SMILES): Cc1nccn1CC1CCc2c(c3ccccc3n2C)/C1=N/OCC(F)(F)F (stereo not drawn) [Example 4, (4E)-9-methyl-3-[(2-methyl-1H-imidazol-1-yl)methyl]-1,2,3,9-tetrahydro-4H-carbazol-4-one O-2,2,2-trifluoroethyloxime]
- inhibition at 1 µM [1]: 19.8%
- inhibition at 10 µM [1]: 26.1%

Structure (SMILES): Cc1nccn1CC1CCc2c(c3ccccc3n2C)C1NO (stereo not drawn) [Example 64, 4-(hydroxyamino)-9-methyl-3-[(2-methyl-1H-imidazol-1-yl)methyl]-2,3,4,9-tetrahydro-1H-carbazole]
- melting point: 140 to 144 °C

Structure (SMILES): Cc1nccn1CC1CCc2c(c3ccccc3n2C)/C1=N/OCc1cccnc1 (stereo not drawn) [Example 10, (4E)-9-methyl-3-[(2-methyl-1H-imidazol-1-yl)methyl]-1,2,3,9-tetrahydro-4H-carbazol-4-one O-(pyidin-3-ylmethyl)oxime]
- inhibition at 1 µM [1]: 19.9%
- inhibition at 10 µM [1]: 50.5%

Structure (SMILES): Cc1nccn1CC1CCc2c(c3ccccc3n2C)/C1=N/OC(=O)c1ccc([N+](=O)[O-])o1 (stereo not drawn) [Example 47, (4E)-9-methyl-3-[(2-methyl-1H-imidazol-1-yl)methyl]-1,2,3,9-tetrahydro-4H-carbazol-4-one O-5-nitro-2-furanoyloxime]
- melting point: 186 to 190 °C
- inhibition at 1 µM [1]: 18%
- inhibition at 10 µM [1]: 26.5%

Structure (SMILES): Cc1nccn1CC1CCc2c(c3ccccc3n2C)/C1=N/OC(=O)c1ccnc(Cl)c1 (stereo not drawn) [Example 27, (4E)-9-methyl-3-[(2-methyl-1H-imidazol-1-yl)methyl]-1,2,3,9-tetrahydro-4H-carbazol-4-one O-2-chloropyridinoyloxime]
- melting point: 172 to 174 °C
- inhibition at 1 µM [1]: 3.51%
- inhibition at 10 µM [1]: 9.77%

Structure (SMILES): Cc1nccn1CC1CCc2c(c3ccccc3n2C)/C1=N/OCc1ccncc1 (stereo not drawn) [Example 11, (4E)-9-methyl-3-[(2-methyl-1H-imidazol-1-yl)methyl]-1,2,3,9-tetrahydro-4H-carbazol-4-one O-(pyridin-4-ylmethyl)oxime]
- inhibition at 1 µM [1]: 11.7%
- inhibition at 10 µM [1]: 47.5%

Structure (SMILES): Cc1nccn1CC1CCc2c(c3ccccc3n2C)/C1=N/Oc1ccc(C(F)(F)F)c(Cl)n1 (stereo not drawn) [Example 22, (4E)-9-methyl-3-[(2-methyl-1H-imidazol-1-yl)methyl]-1,2,3,9-tetrahydro-4H-carbazol-4-one O-(-chloro-5-trifluoromethyl-pyridin-2-yl)oxime]
- inhibition at 1 µM [1]: 53.1%
- inhibition at 10 µM [1]: 48%

Structure (SMILES): Cc1nccn1CC1CCc2c(c3ccccc3n2C)/C1=N/OC(=O)c1ccc(Br)o1 (stereo not drawn) [Example 45, (4E)-9-methyl-3-[(2-methyl-1H-imidazol-1-yl)methyl]-1,2,3,9-tetrahydro-4H-carbazol-4-one O-5-bromo-2-furanoyloxime]
- inhibition at 1 µM [1]: 12.3%
- inhibition at 10 µM [1]: 32.1%

Source: patent US20090170872A1, “Compounds and Their Pharmaceutical Use” (Orchid Research Laboratories Limited, priority 2005, published 2009)
